Results reported in PMC7438494 (Communications Biology, 2020).
Read-outs that look alike come from different tables or passages of the source.

Biological target: human ATP synthase (Homo sapiens, UniProt P00846+P05496)
Test: biochemical
Format: biochemical
Settings: Human Mito
[1] = 3rd exp (12-20-18), BDQ in DMSO, Bedaquiline 0.05 μM, 60 min
[2] = 4th exp (12-12-28), repeated point, Bedaquiline 5e-6 μM, 60 min
[3] = 4th exp (12-12-28), repeated point, Bedaquiline 5e-5 μM, 60 min

COc1nc2ccc(Br)cc2cc1[C@@H](c1ccccc1)[C@@](O)(CCN(C)C)c1cccc2ccccc12 [BDQ, Bedaquiline]
Cyanide sensitive (2nd exp (12-17-18), Bedaquiline 0.2 μM, 60 min): 5.1889 nmol/min/mg
activity at 0.2 µM (2nd exp (12-17-18), Bedaquiline 0.2 μM, 60 min, read-out: % activity): 59.9%
Cyanide sensitive (2nd exp (12-17-18), Bedaquiline 0.5 μM, 60 min): 5.024 nmol/min/mg
activity at 0.5 µM (2nd exp (12-17-18), Bedaquiline 0.5 μM, 60 min, read-out: % activity): 58%
Cyanide sensitive (2nd exp (12-17-18), Bedaquiline 0.65 μM, 60 min): 2.666 nmol/min/mg
activity at 0.65 µM (2nd exp (12-17-18), Bedaquiline 0.65 μM, 60 min, read-out: % activity): 30.8%
Cyanide sensitive (2nd exp (12-17-18), Bedaquiline 0.85 μM, 60 min): 2.868 nmol/min/mg
activity at 0.85 µM (2nd exp (12-17-18), Bedaquiline 0.85 μM, 60 min, read-out: % activity): 33.1%
Cyanide sensitive (2nd exp (12-17-18), Bedaquiline 2 μM, 60 min): 0.0982 nmol/min/mg
activity at 2 µM (2nd exp (12-17-18), Bedaquiline 2 μM, 60 min, read-out: % activity): 1.13%
Cyanide sensitive (2nd exp (12-17-18), Bedaquiline 5 μM, 60 min): -0.8746 nmol/min/mg
activity at 5 µM (2nd exp (12-17-18), Bedaquiline 5 μM, 60 min, read-out: % activity): -10.1%
activity at 0.005 µM (2 nd exp (18_12_17), BDQ 0.005 uM, read-out: Cyanide sensitive % activity): 43.8%
activity at 0.1 µM (2 nd exp (18_12_17), BDQ 0.1 uM, read-out: Cyanide sensitive % activity): 62%
activity at 0.2 µM (2 nd exp (18_12_17), BDQ 0.2 uM, read-out: Cyanide sensitive % activity): 59.9%
activity at 0.5 µM (2 nd exp (18_12_17), BDQ 0.5 uM, read-out: Cyanide sensitive % activity): 58%
activity at 0.65 µM (2 nd exp (18_12_17), BDQ 0.65 uM, read-out: Cyanide sensitive % activity): 30.8%
activity at 0.85 µM (2 nd exp (18_12_17), BDQ 0.85 uM, read-out: Cyanide sensitive % activity): 33.1%
activity at 2 µM (2 nd exp (18_12_17), BDQ 2 uM, read-out: Cyanide sensitive % activity): 1.13%
Cyanide sensitive (3rd exp (12-20-18), BDQ in DMSO, Bedaquiline 0.0005 μM, 60 min): 7.6746 nmol/min/mg
activity at 0.0005 µM (3rd exp (12-20-18), BDQ in DMSO, Bedaquiline 0.0005 μM, 60 min, read-out: % activity): 81.5%
Cyanide sensitive (3rd exp (12-20-18), BDQ in DMSO, Bedaquiline 0.005 μM, 60 min): 8.333 nmol/min/mg
activity at 0.005 µM (3rd exp (12-20-18), BDQ in DMSO, Bedaquiline 0.005 μM, 60 min, read-out: % activity): 88.5%
Cyanide sensitive [1]: 6.758 nmol/min/mg
activity at 0.05 µM [1]: 71.8%
Cyanide sensitive (3rd exp (12-20-18), BDQ in DMSO, Bedaquiline 0.1 μM, 60 min): 8.103 nmol/min/mg
activity at 0.1 µM (3rd exp (12-20-18), BDQ in DMSO, Bedaquiline 0.1 μM, 60 min, read-out: % activity): 86%
Cyanide sensitive (3rd exp (12-20-18), BDQ in DMSO, Bedaquiline 0.2 μM, 60 min): 5.599 nmol/min/mg
activity at 0.2 µM (3rd exp (12-20-18), BDQ in DMSO, Bedaquiline 0.2 μM, 60 min, read-out: % activity): 59.5%
Cyanide sensitive (3rd exp (12-20-18), BDQ in DMSO, Bedaquiline 0.5 μM, 60 min): 3.146 nmol/min/mg
activity at 0.5 µM (3rd exp (12-20-18), BDQ in DMSO, Bedaquiline 0.5 μM, 60 min, read-out: % activity): 33.4%
Cyanide sensitive (3rd exp (12-20-18), BDQ in DMSO, Bedaquiline 0.65 μM, 60 min): 3.762 nmol/min/mg
activity at 0.65 µM (3rd exp (12-20-18), BDQ in DMSO, Bedaquiline 0.65 μM, 60 min, read-out: % activity): 40%
Cyanide sensitive (3rd exp (12-20-18), BDQ in DMSO, Bedaquiline 0.85 μM, 60 min): 3.062 nmol/min/mg
activity at 0.85 µM (3rd exp (12-20-18), BDQ in DMSO, Bedaquiline 0.85 μM, 60 min, read-out: % activity): 32.5%
Cyanide sensitive (3rd exp (12-20-18), BDQ in DMSO, Bedaquiline 1 μM, 60 min): -0.07798 nmol/min/mg
activity at 1 µM (3rd exp (12-20-18), BDQ in DMSO, Bedaquiline 1 μM, 60 min, read-out: % activity): -0.828%
Cyanide sensitive (3rd exp (12-20-18), BDQ in DMSO, Bedaquiline 2 μM, 60 min): 0.1555 nmol/min/mg
activity at 2 µM (3rd exp (12-20-18), BDQ in DMSO, Bedaquiline 2 μM, 60 min, read-out: % activity): 1.65%
Cyanide sensitive (3rd exp (12-20-18), BDQ in DMSO, Bedaquiline 5 μM, 60 min): -0.3777 nmol/min/mg
activity at 5 µM (3rd exp (12-20-18), BDQ in DMSO, Bedaquiline 5 μM, 60 min, read-out: % activity): -4.01%
activity at 0.0005 µM (3rd exp (18_12_20), BDQ 0.0005 uM, read-out: Cyanide sensitive % activity): 81.5%
activity at 0.005 µM (3rd exp (18_12_20), BDQ 0.005 uM, read-out: Cyanide sensitive % activity): 88.5%
activity at 0.2 µM (3rd exp (18_12_20), BDQ 0.2 uM, read-out: Cyanide sensitive % activity): 59.5%
activity at 0.5 µM (3rd exp (18_12_20), BDQ 0.5 uM, read-out: Cyanide sensitive % activity): 33.4%
activity at 0.65 µM (3rd exp (18_12_20), BDQ 0.65 uM, read-out: Cyanide sensitive % activity): 40%
activity at 0.85 µM (3rd exp (18_12_20), BDQ 0.85 uM, read-out: Cyanide sensitive % activity): 32.5%
activity at 1 µM (3rd exp (18_12_20), BDQ 1 uM, read-out: Cyanide sensitive % activity): -0.84%
activity at 2 µM (3rd exp (18_12_20), BDQ 2 uM, read-out: Cyanide sensitive % activity): 1.68%
activity at 5 µM (3rd exp (18_12_20), BDQ 5 uM, read-out: Cyanide sensitive % activity): -4.13%
Cyanide sensitive (4th exp (12-12-28), BDQ in DMSO, Bedaquiline 5e-6 μM, 60 min): 6.055 nmol/min/mg
Cyanide sensitive (4th exp (12-12-28), BDQ in DMSO, Bedaquiline 5e-5 μM, 60 min): 5.641 nmol/min/mg
Cyanide sensitive (4th exp (12-12-28), BDQ in DMSO, Bedaquiline 0.0005 μM, 60 min): 4.664 nmol/min/mg
activity at 0.0005 µM (4th exp (12-12-28), BDQ in DMSO, Bedaquiline 0.0005 μM, 60 min, read-out: % activity): 52.7%
Cyanide sensitive (4th exp (12-12-28), BDQ in DMSO, Bedaquiline 0.005 μM, 60 min): 4.551 nmol/min/mg
activity at 0.005 µM (4th exp (12-12-28), BDQ in DMSO, Bedaquiline 0.005 μM, 60 min, read-out: % activity): 51.4%
Cyanide sensitive (4th exp (12-12-28), BDQ in DMSO, Bedaquiline 0.1 μM, 60 min): 6.3 nmol/min/mg
activity at 0.1 µM (4th exp (12-12-28), BDQ in DMSO, Bedaquiline 0.1 μM, 60 min, read-out: % activity): 71.2%
Cyanide sensitive (4th exp (12-12-28), BDQ in DMSO, Bedaquiline 0.2 μM, 60 min): 4.408 nmol/min/mg
activity at 0.2 µM (4th exp (12-12-28), BDQ in DMSO, Bedaquiline 0.2 μM, 60 min, read-out: % activity): 49.8%
Cyanide sensitive (4th exp (12-12-28), BDQ in DMSO, Bedaquiline 0.5 μM, 60 min): 4.526 nmol/min/mg
activity at 0.5 µM (4th exp (12-12-28), BDQ in DMSO, Bedaquiline 0.5 μM, 60 min, read-out: % activity): 51.2%
Cyanide sensitive (4th exp (12-12-28), BDQ in DMSO, Bedaquiline 0.65 μM, 60 min): 3.3225 nmol/min/mg
activity at 0.65 µM (4th exp (12-12-28), BDQ in DMSO, Bedaquiline 0.65 μM, 60 min, read-out: % activity): 37.6%
Cyanide sensitive (4th exp (12-12-28), BDQ in DMSO, Bedaquiline 1 μM, 60 min): 0.7592 nmol/min/mg
activity at 1 µM (4th exp (12-12-28), BDQ in DMSO, Bedaquiline 1 μM, 60 min, read-out: % activity): 8.58%
Cyanide sensitive (4th exp (12-12-28), BDQ in DMSO, Bedaquiline 2 μM, 60 min): 0.2448 nmol/min/mg
activity at 2 µM (4th exp (12-12-28), BDQ in DMSO, Bedaquiline 2 μM, 60 min, read-out: % activity): 2.77%
Cyanide sensitive (4th exp (12-12-28), BDQ in DMSO, Bedaquiline 5 μM, 60 min): -0.2191 nmol/min/mg
activity at 5 µM (4th exp (12-12-28), BDQ in DMSO, Bedaquiline 5 μM, 60 min, read-out: % activity): -2.48%
Cyanide sensitive (4th exp (12-12-28), BDQ in DMSO, Bedaquiline 10 μM, 60 min): -0.1822 nmol/min/mg
activity at 10 µM (4th exp (12-12-28), BDQ in DMSO, Bedaquiline 10 μM, 60 min, read-out: % activity): -2.06%
Repeted points [2]: 6.965 nmol/min/mg
Repeted points % activity [2]: 78.7332%
Repeted points [3]: 6.5997 nmol/min/mg
Repeted points % activity [3]: 74.6041%
Repeted points (4th exp (12-12-28), repeated point, Bedaquiline 1 μM, 60 min): 0.7668 nmol/min/mg
activity at 1 µM (4th exp (12-12-28), repeated point, Bedaquiline 1 μM, 60 min, read-out: Repeted points % activity): 8.67%
activity at 10 µM (4th exp (18_12_26) duplicate, BDQ 10 uM, read-out: Cyanide sensitive % activity): -2.1%
activity at 0.1 µM (4th exp (18_12_26), BDQ 0.1 uM, read-out: Cyanide sensitive % activity): 71.2%
activity at 0.2 µM (4th exp (18_12_26), BDQ 0.2 uM, read-out: Cyanide sensitive % activity): 49.8%
activity at 0.5 µM (4th exp (18_12_26), BDQ 0.5 uM, read-out: Cyanide sensitive % activity): 51.2%
activity at 0.65 µM (4th exp (18_12_26), BDQ 0.65 uM, read-out: Cyanide sensitive % activity): 37.6%
